According to ChEMBL document CHEMBL1201862, “PubChem BioAssay data set” (2004):
Calls of active or inactive are those of the source.

Legend:
[1] = target: T1, Short transient receptor potential channel 4 (Mus musculus, UniProt Q9QUQ5); experiment: mouse TRPC4 channel activators, dose response, cell-based, HEK293 TRPC4/mu-opioid, Fluo-4 calcium (AID 434937); assay type: functional
T1 sequence (Q9QUQ5 whole entry): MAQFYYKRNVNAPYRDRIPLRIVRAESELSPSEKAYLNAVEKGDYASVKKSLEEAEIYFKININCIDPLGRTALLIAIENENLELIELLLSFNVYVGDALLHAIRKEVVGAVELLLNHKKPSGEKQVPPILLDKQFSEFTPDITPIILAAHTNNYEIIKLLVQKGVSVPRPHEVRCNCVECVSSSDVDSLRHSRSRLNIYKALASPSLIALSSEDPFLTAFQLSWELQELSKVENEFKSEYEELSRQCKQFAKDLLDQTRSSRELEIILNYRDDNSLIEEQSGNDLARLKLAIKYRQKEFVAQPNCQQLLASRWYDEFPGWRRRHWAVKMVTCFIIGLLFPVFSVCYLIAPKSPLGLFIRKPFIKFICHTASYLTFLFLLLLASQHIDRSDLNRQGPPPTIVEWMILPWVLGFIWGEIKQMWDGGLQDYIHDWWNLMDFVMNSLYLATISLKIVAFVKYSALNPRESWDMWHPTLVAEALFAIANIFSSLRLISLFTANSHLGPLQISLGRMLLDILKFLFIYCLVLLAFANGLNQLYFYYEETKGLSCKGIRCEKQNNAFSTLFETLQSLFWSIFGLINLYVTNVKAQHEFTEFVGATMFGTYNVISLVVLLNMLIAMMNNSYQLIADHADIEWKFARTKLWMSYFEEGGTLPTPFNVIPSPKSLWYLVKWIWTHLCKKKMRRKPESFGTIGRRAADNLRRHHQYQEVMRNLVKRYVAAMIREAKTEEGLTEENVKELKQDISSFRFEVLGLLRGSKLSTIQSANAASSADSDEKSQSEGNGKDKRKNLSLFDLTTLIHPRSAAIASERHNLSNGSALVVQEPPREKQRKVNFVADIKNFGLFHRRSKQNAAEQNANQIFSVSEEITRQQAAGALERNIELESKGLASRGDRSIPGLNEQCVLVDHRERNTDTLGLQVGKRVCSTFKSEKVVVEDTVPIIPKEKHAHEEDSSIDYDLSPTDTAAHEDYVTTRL

[2] = target: T2, Small ubiquitin-related modifier 1 (Homo sapiens, UniProt P63165); experiment: inhibitors of SUMO1 partner interactions, dose response, biochemical, FRET (AID 624383); assay type: functional; settings: read-out: IC50_Mean
[3] = target: T2, Small ubiquitin-related modifier 1; experiment: inhibitors of SUMO1 peptide binding, dose response, biochemical, fluorescence polarization, uHTS hits (AID 624382); assay type: functional; settings: read-out: IC50_Mean
[4] = target: T3, Leucine aminopeptidase (Plasmodium falciparum 3D7, UniProt Q8IL11); experiment: P. falciparum M17LAP inhibitors, primary screen, biochemical, fluorogenic H-Leu-NHMec substrate, 1536-well (AID 1619); assay type: functional
T3 sequence (Q8IL11 whole entry): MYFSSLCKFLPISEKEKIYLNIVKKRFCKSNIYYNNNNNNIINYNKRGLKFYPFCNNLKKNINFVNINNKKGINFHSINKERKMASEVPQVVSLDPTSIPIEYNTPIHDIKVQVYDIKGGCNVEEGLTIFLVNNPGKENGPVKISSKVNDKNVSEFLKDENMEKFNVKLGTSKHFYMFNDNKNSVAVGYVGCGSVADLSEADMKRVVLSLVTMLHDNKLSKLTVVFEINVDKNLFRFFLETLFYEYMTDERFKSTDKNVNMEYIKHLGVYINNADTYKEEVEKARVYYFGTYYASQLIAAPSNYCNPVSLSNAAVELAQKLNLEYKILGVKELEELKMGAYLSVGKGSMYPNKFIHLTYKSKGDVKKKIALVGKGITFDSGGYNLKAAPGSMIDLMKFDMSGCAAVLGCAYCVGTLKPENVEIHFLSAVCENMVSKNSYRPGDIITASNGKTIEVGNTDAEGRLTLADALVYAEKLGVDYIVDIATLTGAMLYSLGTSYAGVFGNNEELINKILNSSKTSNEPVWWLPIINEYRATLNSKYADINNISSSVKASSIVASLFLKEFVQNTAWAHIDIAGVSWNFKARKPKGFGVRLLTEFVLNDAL

[5] = test system: Vero; experiment: Vero cell cytotoxicity, cytotoxicity control for flavivirus capping enzyme inhibitors (AID 588742); assay type: functional; settings: Chlorocebus sabaeus
[6] = growth suppression of beta-catenin-knockout colon cells, dose response, cell-based, HCT116, human colon tumor (AID 1045); assay type: functional;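 note: HCT116 colon tumor cells with beta catenin knocked out; cells exposed to compound for 60 hours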
[7] = growth suppression of PTEN-null colon cells, dose response, cell-based, HCT116 PTEN knockout (AID 1047); assay type: functional;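 note: HCT116 colon tumor cells with PTEN knocked out; cells exposed to compound for 60 hours before readout; potency for loss of cell viability measured by luminescence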
[8] = target: T4, Long-chain-fatty-acid--AMP ligase FadD28 (Mycobacterium tuberculosis, UniProt P9WQ59); experiment: Fluorescence polarization aasay to screen for inhibitors that compete for the binding of FadD28 to a bisubstrate Measured in Biochemical System Using Plate Reader - 2147-01_Inhibitor_Dose_CherryPick_Activity.; assay type: functional, Mycobacterium tuberculosis H37Rv
T4 sequence (P9WQ59 whole entry): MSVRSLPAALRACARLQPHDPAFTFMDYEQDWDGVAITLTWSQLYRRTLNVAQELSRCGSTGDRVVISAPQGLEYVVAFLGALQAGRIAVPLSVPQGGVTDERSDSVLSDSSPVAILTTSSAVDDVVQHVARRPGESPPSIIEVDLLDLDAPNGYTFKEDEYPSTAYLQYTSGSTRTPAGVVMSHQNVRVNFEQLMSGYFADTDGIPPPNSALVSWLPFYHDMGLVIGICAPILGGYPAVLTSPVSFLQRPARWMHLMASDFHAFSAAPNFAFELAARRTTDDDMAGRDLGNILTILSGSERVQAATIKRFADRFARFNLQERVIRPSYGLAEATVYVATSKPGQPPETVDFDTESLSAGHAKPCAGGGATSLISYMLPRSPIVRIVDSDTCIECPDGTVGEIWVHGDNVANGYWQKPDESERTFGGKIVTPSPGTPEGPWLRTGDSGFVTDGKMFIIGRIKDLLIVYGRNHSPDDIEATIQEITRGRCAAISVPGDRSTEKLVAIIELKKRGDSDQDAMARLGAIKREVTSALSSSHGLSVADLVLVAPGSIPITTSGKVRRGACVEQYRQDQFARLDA

[9] = target: T5, Adenosylmethionine-8-amino-7-oxononanoate aminotransferase (Mycobacterium tuberculosis, UniProt P9WQ81); experiment: Mycobacterium tuberculosis BioA enzyme inhibitor Measured in Biochemical System Using Plate Reader - 2163-02_Inhibitor_Dose_CherryPick_Activity.; assay type: functional, Mycobacterium tuberculosis UT205
T5 sequence (P9WQ81 whole entry): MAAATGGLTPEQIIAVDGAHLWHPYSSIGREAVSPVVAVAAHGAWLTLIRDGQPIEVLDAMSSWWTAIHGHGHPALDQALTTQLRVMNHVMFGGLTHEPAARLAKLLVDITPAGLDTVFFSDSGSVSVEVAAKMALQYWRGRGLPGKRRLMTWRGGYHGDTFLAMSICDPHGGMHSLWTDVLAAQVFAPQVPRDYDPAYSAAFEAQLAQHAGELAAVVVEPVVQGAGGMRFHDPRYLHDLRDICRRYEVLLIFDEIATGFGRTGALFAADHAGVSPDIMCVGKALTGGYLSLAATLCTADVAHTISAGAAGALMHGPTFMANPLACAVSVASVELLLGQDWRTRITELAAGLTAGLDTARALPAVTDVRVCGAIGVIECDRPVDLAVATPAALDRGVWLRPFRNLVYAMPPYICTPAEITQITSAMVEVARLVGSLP

[10] = target: T6, High affinity choline transporter 1 (Homo sapiens, UniProt Q9GZV3); experiment: CHT inhibitors, dose response, cell-based, 5-point CRC, membrane potential dye (AID 504840); assay type: functional
T6 sequence (Q9GZV3 whole entry): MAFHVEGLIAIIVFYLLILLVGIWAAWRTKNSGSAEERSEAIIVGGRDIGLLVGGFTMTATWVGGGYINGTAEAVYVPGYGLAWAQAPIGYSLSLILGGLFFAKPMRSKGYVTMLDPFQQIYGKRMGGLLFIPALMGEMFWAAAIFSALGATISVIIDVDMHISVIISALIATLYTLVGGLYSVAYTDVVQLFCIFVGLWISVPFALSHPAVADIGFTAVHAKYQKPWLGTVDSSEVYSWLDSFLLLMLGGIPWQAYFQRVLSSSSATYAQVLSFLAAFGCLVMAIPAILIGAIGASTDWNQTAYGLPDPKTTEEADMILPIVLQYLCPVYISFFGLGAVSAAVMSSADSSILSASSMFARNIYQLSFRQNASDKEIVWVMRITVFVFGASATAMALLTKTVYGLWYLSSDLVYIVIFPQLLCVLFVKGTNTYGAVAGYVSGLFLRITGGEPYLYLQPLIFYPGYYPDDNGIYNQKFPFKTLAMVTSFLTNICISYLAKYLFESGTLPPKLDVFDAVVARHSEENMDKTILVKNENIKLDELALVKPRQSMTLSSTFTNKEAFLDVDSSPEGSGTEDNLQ

[11] = target: Genome polyprotein (dengue virus type 2, UniProt P29990); experiment: Dengue-2 NS5 methyltransferase inhibitors, primary screen, biochemical, confirmation dose response (AID 588689); assay type: functional
[12] = target: T7, Fatty acid synthase (Homo sapiens, UniProt P49327); experiment: FAS thioesterase domain inhibitors, dose response, biochemical, endpoint fluorescence intensity, uHTS hits (AID 624327); assay type: functional;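 note: fluorescence from hydrolysis of an O-methyl fluorescein acyl ester substrate by the enzyme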
[13] = target: T7, Fatty acid synthase; experiment: FAS thioesterase domain inhibitors, dose response, biochemical, kinetic fluorescence intensity (AID 624326); assay type: functional;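 note: rate of fluorescence rise from hydrolysis of a fluorogenic O-methyl fluorescein ester substrate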
[14] = test system: Streptococcus sp. 'group A'; experiment: growth inhibition of control SK(-) GAS strain, dose response, counter-screen for streptokinase expression inhibitor project, luminescence, kanamycin, BacTiterGlo, confirmation (AID 1900); assay type: functional, organism-based
[15] = target: T8, Streptokinase A (Streptococcus pyogenes serotype M1, UniProt P10520); experiment: S. pyogenes streptokinase expression inhibitors, potency, dose response, plasminogen activation absorbance, OD405 (AID 1914); assay type: functional, Streptococcus pyogenes M1 GAS;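 note: secreted streptokinase activity via plasminogen activation per viability signal from cell pellet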
T8 sequence (P10520 whole entry): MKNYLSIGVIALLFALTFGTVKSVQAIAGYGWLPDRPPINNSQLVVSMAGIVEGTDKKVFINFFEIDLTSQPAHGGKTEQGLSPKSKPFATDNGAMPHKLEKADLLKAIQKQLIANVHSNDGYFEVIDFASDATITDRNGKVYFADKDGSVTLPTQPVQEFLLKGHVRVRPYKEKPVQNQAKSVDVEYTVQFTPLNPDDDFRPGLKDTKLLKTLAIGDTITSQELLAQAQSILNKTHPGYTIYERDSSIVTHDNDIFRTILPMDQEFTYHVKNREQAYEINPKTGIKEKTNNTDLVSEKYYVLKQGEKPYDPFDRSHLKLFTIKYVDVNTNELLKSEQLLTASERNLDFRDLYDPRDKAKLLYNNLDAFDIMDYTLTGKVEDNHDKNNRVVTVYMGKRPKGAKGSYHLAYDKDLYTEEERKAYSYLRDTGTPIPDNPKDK

[16] = test system: Streptococcus; experiment: Group A Streptococcus viability loss, dose response, counter-screen for streptokinase expression inhibitor project, luminescence, BacTiterGlo (AID 1915); assay type: functional, organism-based;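 note: potency for reduction of bacterial viability or growth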
[17] = C. albicans growth with fluconazole, confirmation, fluorescence, retest (AID 2467); assay type: functional, cell-based
[18] = NIH-3T3 fibroblast cytotoxicity, dose response, cytotoxicity control, cell-based, fluorescence, Alamar Blue, secondary assay (AID 2327); assay type: functional;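 note: NIH-3T3 mouse fibroblasts cultured with fluconazole at 8 µg/mL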
[19] = target: Albumin (Bos taurus, UniProt P02769); experiment: Counterscreen for inhibitors of T-cell receptor (TCR)-CD3 interaction: Fluorescence-based biochemical high throughput dose response assay to identify inhibitors of T-cell receptor (TCR)-CD3 interaction using a TAMRA-labeled BSA probe.; assay type: functional
Albumin, sequence (P02769 whole entry): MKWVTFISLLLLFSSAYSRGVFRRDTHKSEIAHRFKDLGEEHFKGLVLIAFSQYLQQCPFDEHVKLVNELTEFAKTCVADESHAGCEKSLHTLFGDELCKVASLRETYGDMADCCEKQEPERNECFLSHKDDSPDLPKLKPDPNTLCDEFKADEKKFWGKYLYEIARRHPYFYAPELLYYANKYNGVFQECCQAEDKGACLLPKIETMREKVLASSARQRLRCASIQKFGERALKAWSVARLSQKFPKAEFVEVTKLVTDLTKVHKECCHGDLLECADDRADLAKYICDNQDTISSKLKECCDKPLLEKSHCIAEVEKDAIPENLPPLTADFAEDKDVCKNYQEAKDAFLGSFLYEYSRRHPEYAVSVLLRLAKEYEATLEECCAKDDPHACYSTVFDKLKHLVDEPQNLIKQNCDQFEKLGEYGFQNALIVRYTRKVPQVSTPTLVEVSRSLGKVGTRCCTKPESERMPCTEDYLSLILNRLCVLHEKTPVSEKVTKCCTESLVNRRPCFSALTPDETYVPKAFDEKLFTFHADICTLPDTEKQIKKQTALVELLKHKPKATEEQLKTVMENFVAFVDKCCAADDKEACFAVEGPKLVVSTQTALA

T7 sequence (P49327 whole entry, the tested form may be a part): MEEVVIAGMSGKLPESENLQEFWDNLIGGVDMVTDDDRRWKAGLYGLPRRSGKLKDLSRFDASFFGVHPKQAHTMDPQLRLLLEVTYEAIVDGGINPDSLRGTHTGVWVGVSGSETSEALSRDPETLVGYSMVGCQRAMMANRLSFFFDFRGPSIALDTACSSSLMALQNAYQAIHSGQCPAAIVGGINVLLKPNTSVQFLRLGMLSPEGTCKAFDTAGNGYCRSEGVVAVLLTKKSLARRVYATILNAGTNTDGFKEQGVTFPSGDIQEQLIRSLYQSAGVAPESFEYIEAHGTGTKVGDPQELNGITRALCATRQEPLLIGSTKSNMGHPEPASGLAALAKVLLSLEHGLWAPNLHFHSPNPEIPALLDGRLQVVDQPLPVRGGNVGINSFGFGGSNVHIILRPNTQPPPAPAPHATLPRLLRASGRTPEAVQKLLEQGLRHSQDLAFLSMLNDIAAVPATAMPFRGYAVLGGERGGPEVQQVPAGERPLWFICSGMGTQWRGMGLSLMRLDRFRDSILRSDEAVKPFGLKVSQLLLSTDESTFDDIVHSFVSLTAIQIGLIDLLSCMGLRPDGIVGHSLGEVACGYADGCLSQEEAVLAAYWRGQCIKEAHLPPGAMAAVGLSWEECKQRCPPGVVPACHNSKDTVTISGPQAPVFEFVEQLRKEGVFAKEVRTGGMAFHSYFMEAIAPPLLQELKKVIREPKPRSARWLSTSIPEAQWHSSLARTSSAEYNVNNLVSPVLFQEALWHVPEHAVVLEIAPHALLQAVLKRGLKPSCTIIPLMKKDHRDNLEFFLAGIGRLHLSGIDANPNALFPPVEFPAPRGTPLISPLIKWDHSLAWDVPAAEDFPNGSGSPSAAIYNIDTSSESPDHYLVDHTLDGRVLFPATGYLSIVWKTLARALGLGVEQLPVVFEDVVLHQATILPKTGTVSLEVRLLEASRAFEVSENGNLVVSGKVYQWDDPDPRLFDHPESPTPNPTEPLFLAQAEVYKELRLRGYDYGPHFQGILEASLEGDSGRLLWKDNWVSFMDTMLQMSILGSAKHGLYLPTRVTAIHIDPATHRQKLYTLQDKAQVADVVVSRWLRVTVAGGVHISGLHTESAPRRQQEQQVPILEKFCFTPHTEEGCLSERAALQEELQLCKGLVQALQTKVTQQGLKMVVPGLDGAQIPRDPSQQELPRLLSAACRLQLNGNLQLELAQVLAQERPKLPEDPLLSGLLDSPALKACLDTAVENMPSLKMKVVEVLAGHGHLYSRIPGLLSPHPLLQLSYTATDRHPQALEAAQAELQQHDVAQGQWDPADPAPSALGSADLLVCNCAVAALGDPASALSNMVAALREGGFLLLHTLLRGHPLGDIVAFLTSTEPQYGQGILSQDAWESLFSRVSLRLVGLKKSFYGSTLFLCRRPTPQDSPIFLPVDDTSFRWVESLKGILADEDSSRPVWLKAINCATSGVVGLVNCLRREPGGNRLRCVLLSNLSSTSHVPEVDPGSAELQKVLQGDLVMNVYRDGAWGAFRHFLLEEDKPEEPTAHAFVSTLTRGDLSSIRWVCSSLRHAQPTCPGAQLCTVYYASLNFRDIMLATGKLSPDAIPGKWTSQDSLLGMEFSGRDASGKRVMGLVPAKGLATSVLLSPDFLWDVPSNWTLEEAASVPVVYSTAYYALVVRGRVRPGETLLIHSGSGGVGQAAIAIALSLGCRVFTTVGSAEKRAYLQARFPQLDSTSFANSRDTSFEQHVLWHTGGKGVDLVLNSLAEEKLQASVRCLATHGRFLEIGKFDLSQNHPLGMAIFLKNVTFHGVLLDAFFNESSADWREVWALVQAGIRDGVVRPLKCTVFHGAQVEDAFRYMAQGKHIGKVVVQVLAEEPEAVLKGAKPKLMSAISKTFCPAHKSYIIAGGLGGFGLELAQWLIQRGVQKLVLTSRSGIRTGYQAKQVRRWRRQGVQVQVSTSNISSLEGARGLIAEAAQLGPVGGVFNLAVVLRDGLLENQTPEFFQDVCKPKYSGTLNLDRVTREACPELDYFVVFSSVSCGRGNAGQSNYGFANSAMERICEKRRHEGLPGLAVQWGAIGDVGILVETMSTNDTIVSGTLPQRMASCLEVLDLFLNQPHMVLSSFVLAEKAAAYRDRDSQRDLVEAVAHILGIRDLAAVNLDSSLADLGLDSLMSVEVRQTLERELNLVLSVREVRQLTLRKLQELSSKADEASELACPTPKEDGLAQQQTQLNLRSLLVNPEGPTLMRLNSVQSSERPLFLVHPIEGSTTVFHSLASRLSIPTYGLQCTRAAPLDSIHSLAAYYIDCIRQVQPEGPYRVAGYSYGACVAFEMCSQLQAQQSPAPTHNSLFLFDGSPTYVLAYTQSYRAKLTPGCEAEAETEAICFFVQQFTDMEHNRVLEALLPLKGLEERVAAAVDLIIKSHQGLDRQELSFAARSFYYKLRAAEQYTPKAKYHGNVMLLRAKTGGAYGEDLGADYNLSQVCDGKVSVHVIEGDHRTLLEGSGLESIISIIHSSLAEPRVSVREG
Genome polyprotein, sequence (P29990 2492-3391 limits assumed): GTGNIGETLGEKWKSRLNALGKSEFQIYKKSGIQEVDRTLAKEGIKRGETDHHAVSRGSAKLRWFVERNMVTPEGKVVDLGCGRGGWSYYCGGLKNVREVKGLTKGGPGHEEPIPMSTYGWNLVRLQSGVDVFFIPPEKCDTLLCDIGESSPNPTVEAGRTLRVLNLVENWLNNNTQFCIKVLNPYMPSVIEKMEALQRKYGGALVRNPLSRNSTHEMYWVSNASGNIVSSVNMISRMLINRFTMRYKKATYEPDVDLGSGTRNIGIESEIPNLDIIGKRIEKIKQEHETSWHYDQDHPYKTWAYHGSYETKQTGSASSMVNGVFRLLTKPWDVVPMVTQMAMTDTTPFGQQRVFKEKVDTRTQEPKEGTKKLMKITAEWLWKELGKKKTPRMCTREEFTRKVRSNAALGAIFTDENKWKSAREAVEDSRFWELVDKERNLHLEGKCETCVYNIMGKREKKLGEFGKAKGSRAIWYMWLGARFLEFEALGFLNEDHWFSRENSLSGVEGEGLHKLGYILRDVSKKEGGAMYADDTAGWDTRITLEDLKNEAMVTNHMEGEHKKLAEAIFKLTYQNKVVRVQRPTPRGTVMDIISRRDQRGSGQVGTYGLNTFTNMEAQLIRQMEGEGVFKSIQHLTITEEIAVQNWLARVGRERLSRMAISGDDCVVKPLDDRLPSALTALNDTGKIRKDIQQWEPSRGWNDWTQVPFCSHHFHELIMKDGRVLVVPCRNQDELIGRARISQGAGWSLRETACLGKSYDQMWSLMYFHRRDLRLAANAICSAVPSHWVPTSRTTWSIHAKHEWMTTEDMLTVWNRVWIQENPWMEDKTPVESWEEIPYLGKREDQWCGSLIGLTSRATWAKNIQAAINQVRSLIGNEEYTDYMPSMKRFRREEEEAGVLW
T2 sequence (P63165 whole entry): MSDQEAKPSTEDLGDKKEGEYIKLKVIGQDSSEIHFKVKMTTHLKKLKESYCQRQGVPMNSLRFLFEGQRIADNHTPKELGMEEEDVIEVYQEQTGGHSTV

Cc1onc(-c2ccccc2)c1C(=O)NNC(=S)NC(=O)c1ccc(F)cc1
EC50 [1]: 5.96 µM (active)
IC50 [2]: 100 µM (inactive)
IC50 [3]: > 66.6 µM (inactive)
IC50 [4]: 79.4 µM (active)

CC(=O)Nc1ccc(S(=O)(=O)NCCSCc2c(Cl)cccc2Cl)cc1
CC50 [5]: > 40 µM (active)
EC50 [6]: 149 µM (active)
EC50 [7]: 61.4 µM (active)

CC(=O)c1cccc(NC(=O)NC2CCCCCCC2)c1
AC50 [8]: > 100 µM (inactive)

O=C(O)CCS(=O)(=O)c1nc(-c2cccs2)cc(C(F)(F)F)n1
AC50 [9]: 15.6 µM (active)

CCCn1nc(NS(=O)(=O)c2cccc3nonc23)c2cc3cccc(C)c3nc21
IC50 [10]: 3.54 µM (active)
IC50 [11]: 39.8 µM (active)
AC50 [8]: > 100 µM (inactive)

CCOCCCNC(=O)CSc1nc2nc(C)c(Cc3ccccc3)c(C)n2n1
AC50 [9]: 2.18 µM (active)

O=C(CC(C(=O)O)c1ccc(Cl)cc1)c1ccc(Cl)c(Cl)c1 (stereo not given)
IC50 [12]: 2.11 µM (active)
IC50 [13]: 4.21 µM (active)

CCc1ccc(/C=C2\SC(=S)N(CCCC(=O)Nc3ccccc3C(=O)O)C2=O)cc1
CC50 [5]: > 40 µM (active)
EC50 [14]: 1.9 µM (active)
EC50 [15]: > 50 µM (not active)
EC50 [16]: 133 µM (active)
IC50 [11]: 30.8 µM (active)
EC50 [17]: 2.37 µM (active)
EC50 [18]: 6.89 µM (inconclusive)

C=CCn1c(SCc2cc([N+](=O)[O-])cc3c2OCOC3)nc2cc(C(=O)O)ccc2c1=O
IC50 [12]: 2.57 µM (active)
IC50 [13]: 1.6 µM (active)

CSc1ncc(Cl)c(C(=O)Nc2nnc(SC/C=C/c3ccccc3)s2)n1
AC50 [8]: > 100 µM (inactive)

COc1ccc(C(=O)NC(CC(=O)O)c2cc([N+](=O)[O-])ccc2Cl)c(SC)c1 (stereo not given)
IC50 [12]: 7.33 µM (active)
IC50 [13]: 8.79 µM (active)

C=CCNC(=O)/C(=C\c1ccc(OC)cc1)NC(=O)c1ccc([N+](=O)[O-])cc1
IC50 [12]: 2.93 µM (active)
IC50 [13]: 2.21 µM (active)

Nn1c(SCCOc2ccccc2)nnc1-c1cccnc1
AC50 [9]: 1.33 µM (active)

O=C(O)CCc1ccc(-c2ccc(Cl)cc2)n1Cc1ccco1
AC50 [8]: 21.8 µM (active)

Cc1cc(NC(=O)CN(C)S(=O)(=O)c2c[nH]cn2)ccc1Br
AC50 [9]: 19 µM (active)

Cc1cccc(C(=O)NNC(=O)c2ccc(NS(=O)(=O)c3cccs3)cc2)c1C
AC50 [8]: 43.8 µM (active)

CCC(=O)N1CC[C@@H]2[C@@H](CO)N(C)c3ccc(-c4cccc(F)c4)cc3[C@@H]21
AC50 [9]: 0.184 µM (active)

C=CCNC(=S)NNC(=O)c1cccn(Cc2cccc(Cl)c2)c1=O
IC50 [19]: > 94.1 µM (inactive)
